Assays:
Assay type in all cases: cell-based
[1] = system: TGF-β cascades in epithelial lung cells; experiment: Western blot of TGF-β cascades in A549 lung cells; details: 1 μM for 1 hour, TGF-β 2.5 ng/ml
Description: FIG. 14: Inhibition of TAK1 by 5z-7 abolishes the activation of TGF-β cascades in epithelial lung cells: Serum-starved A549 cells were pretreated with or without with 5Z-7-oxozeaenol (1 μM) for 1 hour and then with TGF-β (2.5 ng/ml) for the indicated times. Total protein extracts were analyzed by western blot using the indicated antibodies. […] Similarly, A549 lung cells were pretreated with or without with 5Z-7-oxozeaenol (1 μM) for 1 hour and then with TGF-β (2.5 ng/ml).

[2] = system: p38; experiment: p38 phosphorylation by immuno-blot in RPE cells; details: 1 μM for 1 hour then TGF-β 2.5 ng/ml
Description: FIG. 4A-4C: Inhibition of TAK1 abolishes the activation of TGF-β cascades. FIG. 4A: Serum-starved RPE cells were pretreated with or without with 5Z-7-oxozeaenol (1 μM) for 1 hour and then with TGF-β (2.5 ng/ml) for the indicated times. Total protein extracts were analyzed by western blot using the indicated antibodies. […] FIG. 4B: Levels of phospho-Smad2/3 were quantified and normalized to total Smad2/3 FIG. 4C: Statistical analysis of p-p38 and p-Smad3 activation normalized to p38 and Smad3 respectively, with or without TGF-β stimulation. The histograms present results of 5 independent experiments. Statistics were computed using student t-test (Two tailed distribution equal variance). Data is expressed as the Mean±SD. RPE cells were treated with or without 5Z-7-oxozeaenol followed by TGF-β1 treatment and Smad2/3 phosphorylation patterns were examined by immuno-blots. […] Upon TGF-β1 stimulation, the phosphorylation of p38 increased, reaching a peak at 60 min (FIGS. 4A and C).

[3] = system: RPE cells; experiment: In vitro scratch wound healing assay upon TNFα stimulation; details: 1 μM for 1 hour before 20 ng/ml TNFα, day 1 and 2
Description: FIG. 8A: Cell migration of RPE cells in in vitro scratch wound healing assay. RPE cells were treated with Mitomycin C for 3 hours. After the cells were treated with 1 μM 5Z-7 for 1 hour before adding 20 ng/ml TNFα and wounding on day 0. Photographs were taken at day 1 and 2, respectively, after the wound was made. FIG. 8B: Percentage of the gap size (*, P<0.05, t test); (**, P<0.01, t test). To further support the finding that TAK1 mediated EMT in RPE, we examined the migratory capacity of RPE cells, a well-known marker for EMT (Lee et al., J Cell Biol 2006, 172:973-981). Cell migration was tested by the scratch assay. The assay was performed on RPE cells pretreated or untreated with TAK1 inhibitor prior to stimulation with TGF-β1. […] At 24 hours, in the TGF-β1 treated culture, a major portion of the cells had already migrated into the wounded area, displaying almost complete wound closure at 48 hours.

[4] = system: RPE cells; experiment: Scratch assay, cell migration upon TGF-β1 stimulation; details: 1 μM, TGF-β1 2.5 ng/ml, 24 and 48 hours
Description: FIGS. 2A-2C TAK1 regulates RPE cells EMT phenotype upon TGF-β stimulation. FIG. 2A: RPE cells were serum-starved for 16 hours, pretreated with 5Z-7-oxozeaenol (1 μM) or left untreated for 1 hour. The cells were then treated with TGF-β1 (2.5 ng/ml) as described herein for 24 h and immunostained with α-SMA antibodies (red) and DAPI (blue). Representative photographs of three independent experiments. The histogram in the bottom panel represents quantification of α-SMA antibody pixel intensity. FIG. 2B: RPE cells were serum-starved for 16 hours, then treated with mitomycin C (10 ng/ml) for 3 h. Thereafter, pretreated with 5Z-7-oxozeaenol (1 μM) or Dimethyl sulfoxide (DMSO) for 1 hour. Following this process a scratch was performed in the cell monolayer and the serum free medium was supplemented with TGF-β1 (2.5 ng/ml) or left unsupplemented. Scratches were photo-documented at the indicated times (top panel) and their width was measured using Image-J software. […] Bars are Mean±SD. FIG. 2C: RPE cells were serum-starved for 16 hours then pretreated with 5Z-7-oxozeaenol (1 μM) or SB431542 (10 μM), or DMSO for 1 hour. […] Total MMP-9 activities were processed by gelatin zymography (top panel) and the band intensity values were calculated by Quantity One® 1-D analysis software. […] Data is expressed as the Mean±SD. […]

[5] = system: RPE cells; experiment: Cell size / morphology (rhodamine-phalloidin staining) upon TGF-β1; details: 5Z-7-oxozeaenol 1 μM or SB431542 10 μM prior to TGF-β1
Description: FIG. 3A: RPE cells were plated on fibronectin-coated glass coverslips, serum-starved for 16 hours, pretreated with 5Z-7-oxozeaenol (1 μM) or SB431542 (10 μM), or DMSO for 1 hour, then treated with or without TGF-β1 for 2 days. Following treatment, the cells were stained with rhodamine-phalloidin (actin fibers-red) and DAPI (blue) and visualized by confocal microscopy. Scale bars: […]. FIG. 3B: Serum-starved RPE cells pretreated with 5Z-7-oxozeaenol (1 μM) or DMSO for 1 hour, and were exposed to TGF-β as in FIG. 3A. Total RNA was extracted at each time point and qPCR was performed. Transcription levels of CTGF were determined after 6 h, 16 h and 24 h. Bars represent the specific mRNA amount relative to GAPDH mRNA in the same samples. All experiments were performed in triplicates. A representative histogram from two independent experiments is shown. FIG. 3C: RPE cells were plated and treated as in FIG. 3A. Following treatment, the cells were immunostained with E-cadherin antibodies (green) and DAPI (blue). Representative photographs of two independent experiments are shown. In addition to the secretion of MMPs and increased migratory capacity, several morphological changes underlie EMT (Lamouille et al., I 2007, 178:437-451). […]

COc1cc(O)c2c(c1)/C=C/C[C@H](O)[C@H](O)C(=O)/C=C\C[C@H](C)OC2=O [5Z-7-oxozeaenol]
fibrotic affect stimulated by TGF-β (western blot) [1]: abolishes the fibrotic affect | p38 activation (phosphorylation) upon TGF-β1 stimulation [2]: abolished p38 activation | migration rates of RPE cells treated with TNFα [3]: inhibited the migration rates | migratory capacity of TGF-β1 stimulated cells (scratch assay) [4]: abolished their migratory capacity | TGF-β1-induced increase in cell size (hypertrophic RPE cells) [5]: minimal number of hypertrophic RPE cells

Source: US10206900B2, “Treatments for fibrotic diseases” (MOR RESEARCH APPLICATIONS LTD., priority 2013, dated 2019)
